# Assay results published in ChEMBL document CHEMBL3885861, “Open TG-GATES”.
# Species on record: Rattus norvegicus
# Assay: Open TG-GATES - Regimen: Daily Repeat
# Assay type: toxicity, organism-based, Sprague-Dawley
# Parameters: regimen Daily Repeat, gender Male, age 6 weeks
# Conditions: in vivo, po, 60 mg/kg, route gavage, dose level Low; for APTT / Bas / Eos / Fbg / Hb / Ht / Lym / MCH / MCHC / MCV / Mono / Neu / PT / Plat / RBC / Ret / WBC: tissue Blood
# [1] = 72 h, tissue Kidney, time 3 day
# [2] = 72 h, tissue Plasma, time 3 day
smiles,measurement,setting,value
C[C@](N)(Cc1ccc(O)c(O)c1)C(=O)O [METHYLDOPA],TERMINAL_BW,"72 h, time 3 day",205.8 g
same,APTT,"72 h, time 3 day",17.3 s
same,Bas,"72 h, time 3 day",0%
same,Eos,"72 h, time 3 day",1%
same,Fbg,"72 h, time 3 day",249 mg/dL
same,Hb,"72 h, time 3 day",13.5 g/dL
same,Ht,"72 h, time 3 day",39.1%
same,Lym,"72 h, time 3 day",77.8%
same,MCH,"72 h, time 3 day",21.6 pg
same,MCHC,"72 h, time 3 day",34.4%
same,MCV,"72 h, time 3 day",62.9 fL
same,Mono,"72 h, time 3 day",2.8%
same,Neu,"72 h, time 3 day",17.8%
same,PT,"72 h, time 3 day",12.6 s
same,Plat,"72 h, time 3 day",102.6 x10_4/uL
same,RBC,"72 h, time 3 day",623.2 x10_4/ul
same,Ret,"72 h, time 3 day",7.7%
same,WBC,"72 h, time 3 day",71 x10_2/uL
same,KIDNEY_L,[1],0.9 g
same,KIDNEY_R,[1],0.9 g
same,KIDNEY_TOTAL,[1],1.8 g
same,LIVER,"72 h, tissue Liver, time 3 day",8.9 g
same,A/G,[2],0.9
same,ALP,[2],1905.6 IU/L
same,ALT,[2],60.6 IU/L
same,AST,[2],79.2 IU/L
same,BUN,[2],13.6 mg/dL
same,CRE,[2],0.2 mg/dL
same,Ca,[2],11.1 mg/dL
same,Cl,[2],106.8 meq/L
same,DBIL,[2],0.01 mg/dL
same,GLC,[2],172.6 mg/dL
same,IP,[2],7.4 mg/dL
same,K,[2],4 meq/L
same,LDH,[2],59.2 IU/L
same,Na,[2],144 meq/L
same,PL,[2],130 mg/dL
same,RALB,[2],2.6 g/dL
same,TBIL,[2],0.064 mg/dL
same,TC,[2],76.8 mg/dL
same,TG,[2],51.8 mg/dL
same,TP,[2],5.4 g/dL
same,gamma-GTP,[2],1 IU/L
same,TERMINAL_BW,"[…], time 7 day",237.3 g
same,TERMINAL_BW,"[…], time 14 day",281.9 g
same,TERMINAL_BW,"[…], time 28 day",389.2 g
same,APTT,"[…], time 7 day",16.2 s
same,Bas,"[…], time 7 day",0%
same,Eos,"[…], time 7 day",1%
same,Fbg,"[…], time 7 day",269.2 mg/dL
same,Hb,"[…], time 7 day",13.7 g/dL
same,Ht,"[…], time 7 day",39.9%
same,Lym,"[…], time 7 day",77.8%
same,MCH,"[…], time 7 day",21.8 pg
same,MCHC,"[…], time 7 day",34.3%
same,MCV,"[…], time 7 day",63.4 fL
same,Mono,"[…], time 7 day",3.2%
same,Neu,"[…], time 7 day",17.6%
same,PT,"[…], time 7 day",12.1 s
same,Plat,"[…], time 7 day",124.4 x10_4/uL
same,RBC,"[…], time 7 day",629 x10_4/ul
same,Ret,"[…], time 7 day",5.2%
same,WBC,"[…], time 7 day",68.8 x10_2/uL
same,APTT,"[…], time 14 day",16.9 s
same,Bas,"[…], time 14 day",0%
same,Eos,"[…], time 14 day",1%
same,Fbg,"[…], time 14 day",302.6 mg/dL
same,Hb,"[…], time 14 day",13.8 g/dL
same,Ht,"[…], time 14 day",39.6%
same,Lym,"[…], time 14 day",80.6%
same,MCH,"[…], time 14 day",20.5 pg
same,MCHC,"[…], time 14 day",34.9%
same,MCV,"[…], time 14 day",59 fL
same,Mono,"[…], time 14 day",2.6%
same,Neu,"[…], time 14 day",15.4%
same,PT,"[…], time 14 day",14 s
same,Plat,"[…], time 14 day",109.7 x10_4/uL
same,RBC,"[…], time 14 day",672.8 x10_4/ul
same,Ret,"[…], time 14 day",4.4%
same,WBC,"[…], time 14 day",64.6 x10_2/uL
same,APTT,"[…], time 28 day",18.8 s
same,Bas,"[…], time 28 day",0%
same,Eos,"[…], time 28 day",1.2%
same,Fbg,"[…], time 28 day",289 mg/dL
same,Hb,"[…], time 28 day",15 g/dL
same,Ht,"[…], time 28 day",42.9%
